Patent US10940139B2, “Compounds that interact with the Ras superfamily for the treatment of cancers, inflammatory diseases, rasopathies, and fibrotic disease” (Shy Therapeutics LLC, priority 2017, dated 2021)

Columns and labels:
[1] = target: KRas G12D/Q61H double mutant (Homo sapiens (Human), UniProt P01116, G12D/Q61H); test: Ras GTP binding domain inhibition assay (labeled GTP); conditions: at 20 μM; read-out: KRas G12D Q61H % Inh.
Outline: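 Inhibition of labeled GTP binding is measured on immobilized His-KRas protein in Tris buffer pH 7.5 with 1 mM MgCl2 and 1 mM DTT.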

Rac-1 = Rac-1 (Homo sapiens (Human), UniProt P63000); test: Rac inhibition assay (labeled GTP); assay type: binding; conditions: read-out: Rac-1 % Inh.
Rho-A = Rho-A (Homo sapiens (Human), UniProt P61586); test: Rho inhibition assay (labeled GTP); assay type: binding; conditions: read-out: Rho-A % Inh.
Rho-A, sequence (P61586 whole entry): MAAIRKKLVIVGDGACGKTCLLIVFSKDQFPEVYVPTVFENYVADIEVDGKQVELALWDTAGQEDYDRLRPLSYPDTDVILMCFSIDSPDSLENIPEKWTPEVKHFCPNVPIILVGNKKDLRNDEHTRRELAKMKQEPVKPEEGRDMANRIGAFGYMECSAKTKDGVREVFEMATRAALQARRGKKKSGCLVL

KRas G12D/Q61H double mutant, sequence (P01116-2 other isoform, or with tags, fused parts or gaps G12D/Q61H): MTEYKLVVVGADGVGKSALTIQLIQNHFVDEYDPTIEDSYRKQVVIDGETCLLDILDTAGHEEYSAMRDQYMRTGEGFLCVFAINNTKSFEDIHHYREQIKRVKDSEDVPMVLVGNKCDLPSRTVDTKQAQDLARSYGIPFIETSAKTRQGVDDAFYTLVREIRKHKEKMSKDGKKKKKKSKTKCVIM

Structure (SMILES): Cc1cc(OC(F)F)ccc1-c1csc2c(O)nc(-c3ccccn3)nc12 [drawing 3750]
- inhibition at 20 µM [1]: 25 to 50%
- inhibition at 20 µM (Rac-1): 25 to 50%
- inhibition at 20 µM (Rho-A): 1 to 25%

Structure (SMILES): Oc1nc(-c2ccccn2)nc2c(-c3ccc(CN4CCOCC4)cc3)csc12 [drawing 3754]
- inhibition at 20 µM [1]: 25 to 50%
- inhibition at 20 µM (Rac-1): 51 to 75%
- inhibition at 20 µM (Rho-A): 25 to 50%

Structure (SMILES): Oc1nc(-c2ccccn2)nc2c(-c3ccc(OC4CCCCC4)cc3)csc12 [drawing 3759]
- inhibition at 20 µM [1]: 25 to 50%
- inhibition at 20 µM (Rac-1): 51 to 75%
- inhibition at 20 µM (Rho-A): 51 to 75%

Structure (SMILES): Nc1nc(-c2ccccn2)nc2c(Br)csc12 [drawing 3764]
- inhibition at 20 µM [1]: 25 to 50%
- inhibition at 20 µM (Rac-1): 51 to 75%
- inhibition at 20 µM (Rho-A): 51 to 75%

Structure (SMILES): Cc1sc2c(N)nc(-c3ccccn3)nc2c1Br [drawing 3765]
- inhibition at 20 µM [1]: 25 to 50%
- inhibition at 20 µM (Rac-1): 25 to 50%
- inhibition at 20 µM (Rho-A): 25 to 50%

Structure (SMILES): Nc1nc(-c2ccccn2)nc2scc(Br)c12 [drawing 3766]
- inhibition at 20 µM [1]: 25 to 50%
- inhibition at 20 µM (Rac-1): 51 to 75%
- inhibition at 20 µM (Rho-A): 51 to 75%

Structure (SMILES): COC(=O)c1csc2nc(-c3ccccn3)nc(N)c12 [drawing 3767]
- inhibition at 20 µM [1]: 25 to 50%
- inhibition at 20 µM (Rac-1): 51 to 75%
- inhibition at 20 µM (Rho-A): 51 to 75%

Structure (SMILES): COc1nccc(CCNC(=O)c2csc3nc(-c4ccccn4)nc(N4CCOCC4)c23)n1 [drawing 3769]
- inhibition at 20 µM [1]: 1 to 25%
- inhibition at 20 µM (Rac-1): 25 to 50%
- inhibition at 20 µM (Rho-A): 25 to 50%

Structure (SMILES): O=C(NCCc1ccnc(O)n1)c1csc2nc(-c3ccccn3)nc(N3CCOCC3)c12 [drawing 3770]
- inhibition at 20 µM [1]: 1 to 25%
- inhibition at 20 µM (Rac-1): 51 to 75%
- inhibition at 20 µM (Rho-A): 51 to 75%

Structure (SMILES): CCn1nc(C)cc1-c1csc2c(O)nc(-c3ccccn3)nc12 [drawing 3775]
- inhibition at 20 µM [1]: 51 to 75%
- inhibition at 20 µM (Rac-1): 51 to 75%
- inhibition at 20 µM (Rho-A): 76 to 100%

Structure (SMILES): Oc1nc(-c2ccccn2)nc2c(-c3ccnn3-c3ccccn3)csc12 [drawing 3776]
- inhibition at 20 µM [1]: 1 to 25%
- inhibition at 20 µM (Rac-1): 25 to 50%
- inhibition at 20 µM (Rho-A): 25 to 50%

Structure (SMILES): Nc1nc(-c2ccccn2)nc2scc(C(=O)O)c12 [drawing 3778]
- inhibition at 20 µM [1]: 25 to 50%
- inhibition at 20 µM (Rac-1): 51 to 75%
- inhibition at 20 µM (Rho-A): 51 to 75%

Structure (SMILES): COC(=O)c1cc2nc(-c3ccccn3)nc(O)c2s1 [drawing 3779]
- inhibition at 20 µM [1]: 51 to 75%
- inhibition at 20 µM (Rac-1): 51 to 75%
- inhibition at 20 µM (Rho-A): 76 to 100%

Structure (SMILES): Oc1nc(-c2ccccn2)nc2c(-c3ccc(Cl)c(Cl)c3)csc12 [drawing 3781]
- inhibition at 20 µM [1]: 25 to 50%
- inhibition at 20 µM (Rac-1): 25 to 50%
- inhibition at 20 µM (Rho-A): 51 to 75%

Structure (SMILES): Oc1nc(-c2ccccn2)nc2c(-c3cncc(F)c3)csc12 [drawing 3782]
- inhibition at 20 µM [1]: 1 to 25%
- inhibition at 20 µM (Rac-1): 1 to 25%
- inhibition at 20 µM (Rho-A): 1 to 25%

Structure (SMILES): Cc1cncc(-c2csc3c(O)nc(-c4ccccn4)nc23)c1 [drawing 3785]
- inhibition at 20 µM [1]: 25 to 50%
- inhibition at 20 µM (Rac-1): 51 to 75%
- inhibition at 20 µM (Rho-A): 25 to 50%

Structure (SMILES): COc1cnc(C2CCCN2)nc1O (stereo not drawn) [drawing 3788]
- inhibition at 20 µM [1]: 0%
- inhibition at 20 µM (Rac-1): 0%
- inhibition at 20 µM (Rho-A): 1 to 25%

Structure (SMILES): COC(=O)c1c(C)sc2c(O)nc(-c3ccccn3)nc12 [drawing 3792]
- inhibition at 20 µM [1]: 51 to 75%
- inhibition at 20 µM (Rac-1): 76 to 100%
- inhibition at 20 µM (Rho-A): 76 to 100%

Structure (SMILES): Cc1c(Br)sc2c(O)nc(-c3ccccn3)nc12 [drawing 3793]
- inhibition at 20 µM [1]: 25 to 50%
- inhibition at 20 µM (Rac-1): 51 to 75%
- inhibition at 20 µM (Rho-A): 51 to 75%

Structure (SMILES): COC(=O)c1sc2c(O)nc(-c3ccccn3)nc2c1C [drawing 3795]
- inhibition at 20 µM [1]: 25 to 50%
- inhibition at 20 µM (Rac-1): 51 to 75%
- inhibition at 20 µM (Rho-A): 51 to 75%

Structure (SMILES): Oc1nc(-c2ccccn2)nc2c3c(sc12)CNC3 [drawing 3796]
- inhibition at 20 µM [1]: 51 to 75%
- inhibition at 20 µM (Rac-1): 76 to 100%
- inhibition at 20 µM (Rho-A): 76 to 100%

Structure (SMILES): COc1nc(-c2ccccn2)nc2c(C3CCCCC3)csc12 [drawing 3798]
- inhibition at 20 µM [1]: 1 to 25%
- inhibition at 20 µM (Rac-1): 1 to 25%
- inhibition at 20 µM (Rho-A): 1 to 25%

Structure (SMILES): COc1nc(-c2ccccn2)nc2c(C3CCC3)csc12 [drawing 3799]
- inhibition at 20 µM [1]: 51 to 75%
- inhibition at 20 µM (Rac-1): 76 to 100%
- inhibition at 20 µM (Rho-A): 76 to 100%

Structure (SMILES): Cc1sc2c(O)nc(-c3ccccn3)nc2c1C(=O)O [drawing 3801]
- inhibition at 20 µM [1]: 25 to 50%
- inhibition at 20 µM (Rac-1): 1 to 25%
- inhibition at 20 µM (Rho-A): 25 to 50%

Structure (SMILES): Cc1sc2nc(-c3ccccn3)nc(N)c2c1Br [drawing 3803]
- inhibition at 20 µM [1]: 25 to 50%
- inhibition at 20 µM (Rac-1): 25 to 50%
- inhibition at 20 µM (Rho-A): 51 to 75%

Structure (SMILES): Oc1nc(-c2ccccn2)nc2c(CC3CCCNC3)csc12 (stereo not drawn) [drawing 3807]
- inhibition at 20 µM [1]: 25 to 50%
- inhibition at 20 µM (Rac-1): 51 to 75%
- inhibition at 20 µM (Rho-A): 76 to 100%

Structure (SMILES): COc1nc(-c2ccccn2)nc2c(C3CC3)csc12 [drawing 3808]
- inhibition at 20 µM [1]: 1 to 25%
- inhibition at 20 µM (Rac-1): 0%
- inhibition at 20 µM (Rho-A): 0%
